According to patent US20260027116A1, “Methods of Treating Chronic Graft-Versus-Host Disease Following Allogeneic Hematopoietic Stem Cell Transplantation” (Kadmon Corporation, LLC, priority 2022, published 2026):

What was measured:
cGVHD = test: Example 1: corticosteroid and calcineurin inhibitor dose change; format: in vivo, human
Protocol: Progression was defined per the 2014 NIH cGVHD Consensus Criteria. Long-term follow-up was conducted every 8 weeks until study closeout. […] Screening was conducted within 28 days of the first study dose. Response was initially assessed after two cycles; however, this was amended to evaluate response on day 1 of each cycle, starting at cycle 2 day 1.
Change from Baseline in Corticosteroids Dose. An EOT visit was performed within 3 days after the participant's last dose of study drug. Baseline value was defined as valid and last non-missing value obtained within 28 days prior to participant receiving first study medication. The mITT population was analyzed, with the ‘overall number of participants analyzed’=participants with available data for this outcome measure.
Change from Baseline in Calcineurin Inhibitor (CNI). Calcineurin inhibitors included systemic tacrolimus and cyclosporine. Number of participants who took CNI at Baseline and had reduction and discontinuation in CNI use as compared to Baseline during the study are reported in this outcome measure. EOT visit was performed within 3 days after the participant's last dose of study drug. Baseline value was defined as valid and last non-missing value obtained within 28 days prior to participant receiving first study medication.

cGVHD symptoms = test: Example 1: symptom activity by cGVHD Activity Assessment participant self-report; format: in vivo, human
Text: Number of Participants With Maximal Improvement From Baseline in Symptom Activity by cGVHD Activity Assessment Participant Self-Report. cGVHD symptom severity was self-reported by participants. Participants were asked to rate their disease symptom severity over the last week on the following questions: skin itching at its worst, moth dryness at its worst, mouth pain at its worst, mouth sensitivity at its worst, main compliant on eyes, symptom severity on eyes. The severity rating was done on a 0 to 10-point numeric rating scare, where score 0 indicated ‘not at all severe cGVHD symptoms’ and score 10 indicated ‘most severe cGVHD symptoms possible’. EOT visit was performed within 3 days after the participant's last dose of study drug. Baseline value was defined as valid and last non-missing value obtained within 28 days prior to participant receiving first study medication. […] Analysis was performed on mITT population.

[1] = pharmacokinetics in chronic GVHD patients; format: in vivo, human; conditions: 200 and 400 mg
P-gp = P-gp (Homo sapiens, UniProt P08183); test: transporter inhibition in vitro; format: in vitro ADME; conditions: at clinically relevant concentrations
Chain of P-gp (P08183 whole entry): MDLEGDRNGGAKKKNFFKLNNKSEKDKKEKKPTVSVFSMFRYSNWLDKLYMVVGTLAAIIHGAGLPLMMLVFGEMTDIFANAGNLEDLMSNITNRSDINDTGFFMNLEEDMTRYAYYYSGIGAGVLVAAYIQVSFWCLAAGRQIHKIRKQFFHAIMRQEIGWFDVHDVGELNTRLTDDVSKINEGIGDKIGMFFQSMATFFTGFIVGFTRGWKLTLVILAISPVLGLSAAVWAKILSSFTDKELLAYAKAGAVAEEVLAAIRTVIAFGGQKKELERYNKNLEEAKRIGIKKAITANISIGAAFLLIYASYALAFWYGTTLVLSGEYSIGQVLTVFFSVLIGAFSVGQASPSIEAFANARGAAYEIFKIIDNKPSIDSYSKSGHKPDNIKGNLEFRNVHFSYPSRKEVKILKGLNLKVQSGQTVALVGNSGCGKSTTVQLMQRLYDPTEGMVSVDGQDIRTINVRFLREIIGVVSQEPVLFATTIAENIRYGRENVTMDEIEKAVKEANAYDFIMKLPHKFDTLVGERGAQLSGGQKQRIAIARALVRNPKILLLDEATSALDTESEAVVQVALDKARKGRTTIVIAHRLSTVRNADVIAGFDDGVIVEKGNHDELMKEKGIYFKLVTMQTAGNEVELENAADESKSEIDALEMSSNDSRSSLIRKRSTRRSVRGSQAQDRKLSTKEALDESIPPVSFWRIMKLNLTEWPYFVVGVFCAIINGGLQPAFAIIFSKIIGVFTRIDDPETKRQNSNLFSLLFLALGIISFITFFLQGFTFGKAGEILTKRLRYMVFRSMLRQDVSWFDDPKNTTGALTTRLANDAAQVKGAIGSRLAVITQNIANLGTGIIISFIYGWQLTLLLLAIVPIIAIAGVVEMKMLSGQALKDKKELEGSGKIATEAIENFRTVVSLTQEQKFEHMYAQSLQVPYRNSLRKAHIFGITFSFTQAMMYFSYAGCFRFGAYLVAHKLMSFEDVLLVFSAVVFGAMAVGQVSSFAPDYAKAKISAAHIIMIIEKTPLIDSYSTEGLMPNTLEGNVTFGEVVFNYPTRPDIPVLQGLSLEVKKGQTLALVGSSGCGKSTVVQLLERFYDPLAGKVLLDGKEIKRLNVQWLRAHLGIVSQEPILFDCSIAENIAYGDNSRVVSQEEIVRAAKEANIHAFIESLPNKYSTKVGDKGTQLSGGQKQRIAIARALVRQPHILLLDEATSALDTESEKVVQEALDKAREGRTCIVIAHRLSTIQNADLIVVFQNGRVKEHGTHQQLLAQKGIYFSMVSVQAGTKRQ

CYP3A4 = CYP3A4 (Homo sapiens, UniProt P08684); test: metabolism in vitro; format: in vitro ADME
Chain of CYP3A4 (P08684 whole entry): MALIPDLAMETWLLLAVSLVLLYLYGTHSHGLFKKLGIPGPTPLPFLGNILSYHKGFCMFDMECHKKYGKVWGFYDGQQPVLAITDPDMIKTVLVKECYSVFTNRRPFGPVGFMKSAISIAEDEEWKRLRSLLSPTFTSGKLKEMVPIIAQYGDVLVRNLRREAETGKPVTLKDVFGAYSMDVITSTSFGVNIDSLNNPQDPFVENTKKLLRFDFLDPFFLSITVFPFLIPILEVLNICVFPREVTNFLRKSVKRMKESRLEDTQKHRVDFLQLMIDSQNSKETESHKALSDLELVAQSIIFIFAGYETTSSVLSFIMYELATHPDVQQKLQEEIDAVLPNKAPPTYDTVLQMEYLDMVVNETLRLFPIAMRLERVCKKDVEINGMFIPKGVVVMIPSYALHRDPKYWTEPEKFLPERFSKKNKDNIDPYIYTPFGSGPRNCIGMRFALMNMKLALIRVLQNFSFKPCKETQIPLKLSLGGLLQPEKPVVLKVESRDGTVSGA

CC(C)NC(=O)COc1cccc(-c2nc(Nc3ccc4[nH]ncc4c3)c3ccccc3n2)c1 [Belumosudil, 2-{3-[4-(1H-indazol-5-ylamino)-2-quinazolinyl]phenoxy}-N-(propan-2-yl) acetamide]
Change From Baseline in Corticosteroids Dose, mean (SD) (cGVHD; Cohort 1 200 mg QD): −0.110 (0.101) milligrams per kilogram per day | Participants who discontinued CNI, n (%) (cGVHD; Cohort 1 200 mg QD): 0 (0%) | Participants with reduction in CNI dose, n (%) (cGVHD; Cohort 1 200 mg QD): 5 (83%) | mean percent change in CS dose from baseline, nonresponder (cGVHD; Cohort 1 200 mg QD): −26% | mean percent change in CS dose from baseline, overall (cGVHD; Cohort 1 200 mg QD): −50% | mean percent change in CS dose from baseline, responder (cGVHD; Cohort 1 200 mg QD): −63% | Change From Baseline in Corticosteroids Dose, mean (SD) (cGVHD; Cohort 2 200 mg BID): −0.111 (0.147) milligrams per kilogram per day | Participants who discontinued CNI, n (%) (cGVHD; Cohort 2 200 mg BID): 1 (17%) | Participants with reduction in CNI dose, n (%) (cGVHD; Cohort 2 200 mg BID): 5 (83%) | mean percent change in CS dose from baseline, nonresponder (cGVHD; Cohort 2 200 mg BID): −37% | mean percent change in CS dose from baseline, overall (cGVHD; Cohort 2 200 mg BID): −36% | mean percent change in CS dose from baseline, responder (cGVHD; Cohort 2 200 mg BID): −36% | Change From Baseline in Corticosteroids Dose, mean (SD) (cGVHD; Cohort 3 400 mg QD): −0.116 (0.152) milligrams per kilogram per day | Participants who discontinued CNI, n (%) (cGVHD; Cohort 3 400 mg QD): 3 (27%) | Participants with reduction in CNI dose, n (%) (cGVHD; Cohort 3 400 mg QD): 6 (55%) | mean percent change in CS dose from baseline, nonresponder (cGVHD; Cohort 3 400 mg QD): −19% | mean percent change in CS dose from baseline, overall (cGVHD; Cohort 3 400 mg QD): −47% | mean percent change in CS dose from baseline, responder (cGVHD; Cohort 3 400 mg QD): −63% | median time to corticosteroid therapy discontinuation (cGVHD; Example 1): 29 weeks | mean corticosteroid dose reduction (cGVHD; Example 1, all patients): 45% | mean corticosteroid dose reduction (cGVHD; Example 1, nonresponders): 26% | mean corticosteroid dose reduction (cGVHD; Example 1, responders): 55% | mean percent change in CS dose from baseline, nonresponder (cGVHD; Total, N=54): −26% | mean percent change in CS dose from baseline, overall (cGVHD; Total, N=54): −45% | mean percent change in CS dose from baseline, responder (cGVHD; Total, N=54): −55% | proportion with CS reduction, % (95% CI) (cGVHD; Total, N=54): 67% | self-reported symptom activity maximal improvement 0, participants (%) (cGVHD symptoms; Cohort 1 200 mg QD): 1 (6%) participants | self-reported symptom activity maximal improvement 1, participants (%) (cGVHD symptoms; Cohort 1 200 mg QD): 0 (0%) participants | self-reported symptom activity maximal improvement 2, participants (%) (cGVHD symptoms; Cohort 1 200 mg QD): 0 (0%) participants | self-reported symptom activity maximal improvement 4, participants (%) (cGVHD symptoms; Cohort 1 200 mg QD): 1 (6%) participants | self-reported symptom activity maximal improvement from baseline −8, participants (%) (cGVHD symptoms; Cohort 1 200 mg QD): 0 (0%) participants | self-reported symptom activity maximal improvement −1, participants (%) (cGVHD symptoms; Cohort 1 200 mg QD): 2 (12%) participants | self-reported symptom activity maximal improvement −2, participants (%) (cGVHD symptoms; Cohort 1 200 mg QD): 2 (12%) participants | self-reported symptom activity maximal improvement −3, participants (%) (cGVHD symptoms; Cohort 1 200 mg QD): 2 (12%) participants | self-reported symptom activity maximal improvement −4, participants (%) (cGVHD symptoms; Cohort 1 200 mg QD): 2 (12%) participants | self-reported symptom activity maximal improvement −5, participants (%) (cGVHD symptoms; Cohort 1 200 mg QD): 2 (12%) participants | self-reported symptom activity maximal improvement −6, participants (%) (cGVHD symptoms; Cohort 1 200 mg QD): 0 (0%) participants | self-reported symptom activity maximal improvement −7, participants (%) (cGVHD symptoms; Cohort 1 200 mg QD): 3 (18%) participants | self-reported symptom activity maximal improvement 0, participants (%) (cGVHD symptoms; Cohort 2 200 mg BID): 1 (6%) participants | self-reported symptom activity maximal improvement 1, participants (%) (cGVHD symptoms; Cohort 2 200 mg BID): 0 (0%) participants | self-reported symptom activity maximal improvement 2, participants (%) (cGVHD symptoms; Cohort 2 200 mg BID): 1 (6%) participants | self-reported symptom activity maximal improvement 4, participants (%) (cGVHD symptoms; Cohort 2 200 mg BID): 0 (0%) participants | self-reported symptom activity maximal improvement from baseline −8, participants (%) (cGVHD symptoms; Cohort 2 200 mg BID): 0 (0%) participants | self-reported symptom activity maximal improvement −1, participants (%) (cGVHD symptoms; Cohort 2 200 mg BID): 2 (13%) participants | self-reported symptom activity maximal improvement −2, participants (%) (cGVHD symptoms; Cohort 2 200 mg BID): 3 (19%) participants | self-reported symptom activity maximal improvement −3, participants (%) (cGVHD symptoms; Cohort 2 200 mg BID): 2 (13%) participants | self-reported symptom activity maximal improvement −4, participants (%) (cGVHD symptoms; Cohort 2 200 mg BID): 2 (13%) participants | self-reported symptom activity maximal improvement −5, participants (%) (cGVHD symptoms; Cohort 2 200 mg BID): 0 (0%) participants | self-reported symptom activity maximal improvement −6, participants (%) (cGVHD symptoms; Cohort 2 200 mg BID): 1 (6%) participants | self-reported symptom activity maximal improvement −7, participants (%) (cGVHD symptoms; Cohort 2 200 mg BID): 2 (13%) participants | self-reported symptom activity maximal improvement 0, participants (%) (cGVHD symptoms; Cohort 3 400 mg QD): 0 (0%) participants | self-reported symptom activity maximal improvement 1, participants (%) (cGVHD symptoms; Cohort 3 400 mg QD): 1 (5%) participants | self-reported symptom activity maximal improvement 2, participants (%) (cGVHD symptoms; Cohort 3 400 mg QD): 2 (10%) participants | self-reported symptom activity maximal improvement 4, participants (%) (cGVHD symptoms; Cohort 3 400 mg QD): 0 (0%) participants | self-reported symptom activity maximal improvement from baseline −8, participants (%) (cGVHD symptoms; Cohort 3 400 mg QD): 1 (5%) participants | self-reported symptom activity maximal improvement −1, participants (%) (cGVHD symptoms; Cohort 3 400 mg QD): 2 (10%) participants | self-reported symptom activity maximal improvement −2, participants (%) (cGVHD symptoms; Cohort 3 400 mg QD): 2 (10%) participants | self-reported symptom activity maximal improvement −3, participants (%) (cGVHD symptoms; Cohort 3 400 mg QD): 2 (10%) participants | self-reported symptom activity maximal improvement −4, participants (%) (cGVHD symptoms; Cohort 3 400 mg QD): 1 (5%) participants | self-reported symptom activity maximal improvement −5, participants (%) (cGVHD symptoms; Cohort 3 400 mg QD): 2 (10%) participants | self-reported symptom activity maximal improvement −6, participants (%) (cGVHD symptoms; Cohort 3 400 mg QD): 4 (19%) participants | self-reported symptom activity maximal improvement −7, participants (%) (cGVHD symptoms; Cohort 3 400 mg QD): 0 (0%) participants | dose dependence of Cmax and AUC [1]: approximately proportional | inhibition of P-gp (P-gp): inhibits | metabolism by CYP3A4 (CYP3A4): primarily metabolized
